Laboratory results from ChEMBL document CHEMBL1201862, “PubChem BioAssay data set” (2004).
Active and inactive are the calls of the source.

Assays:
[1] = HIV-1 AD8 envelope cell-cell fusion blockers – cherry-pick, dose response (AID 652062); assay type: functional, cell-based;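 also: luciferase signal from cell-cell fusion driven by HIV-1 clade B AD8 Env; potency is for inhibitors of fusion seen as a drop in luminescence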
[2] = viability loss in CEM21 cells – cell-based, CellTiter-Glo luminescence, cherry-picked, cytotoxicity control for viral fusion inhibitor project, dose response (AID 652042); assay type: functional;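 also: potency for signal decrease meaning cytotoxicity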
[3] = off-target signal loss in HeLa-CEM21 co-culture – HeLa F-luc CTL cells, cherry-picked, counter-screen for HIV-1 Env fusion inhibitor project, dose response (AID 652040); assay type: functional, cell-based;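 also: potency for signal decrease marking cytotoxic or nonspecific inhibition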
[4] = viability of uninfected HEp-2 cells – cell-based, HTS, cytotoxicity control for RSV inhibitor project, dose response (AID 2410); assay type: functional; conditions: human respiratory syncytial virus
[5] = blockers of bursicon-stimulated LGR2 cAMP reporter – cell-based, HEK293, CRE-luciferase reporter, cherry pick, set 2, dose response (AID 743343); assay type: functional;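 also: transfected cells were stimulated with diluted bursicon conditioned medium after compound addition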
[6] = toxicity toward HepG2 liver cells – cell-based, plate reader, cherry-pick, antagonist series, cytotoxicity control, dose response (AID 743416); assay type: functional
[7] = blockade of melanocortin 4 receptor signaling – cell-based, plate reader, cherry pick, counter-screen for LGR2 antagonist project, dose response (AID 743444); assay type: functional;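 also: transfected HEK 293 cells stimulated with alpha-MSH peptide; potency of inhibitors of the alpha-MSH evoked signal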
[8] = viability loss in HEK293 cells – cell-based, plate reader, cherry-picked samples, cytotoxicity control, dose response (AID 743446); assay type: functional
[9] = A549 cell cytotoxicity, dose response, cytotoxicity control, plate reader, cherry-pick, antagonist series (AID 743412); assay type: functional, cell-based
BJ [10] = test: cells; assay type: functional, cell-based; conditions: Homo sapiens
BJ [11] = test: BJ-TERT-LT-ST fibroblast viability loss – cell-based, RAS-independent, luminescence, dose response (AID 1935); assay type: functional; conditions: Homo sapiens;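 also: BJ fibroblasts immortalized with TERT plus LT and ST oncogenes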
Vero [12] = test: cells; assay type: functional; conditions: Chlorocebus sabaeus
BJ [13] = test: BJ-TERT fibroblast viability loss – cell-based, RAS-independent, luminescence, dose response (AID 1933); assay type: functional; conditions: Homo sapiens
Vero [14] = test: cells; assay type: functional, cell-based; conditions: Chlorocebus sabaeus
[15] = DRD fibroblast viability loss – cell-based, non-viral oncogenic, luminescence, dose response (AID 1934); assay type: functional; conditions: Homo sapiens
[16] = blockers of HIV-1 ZM109 envelope-driven cell-cell fusion – HeLa effector, CEM target cells, luciferase, cherry-pick, dose response (AID 652058); assay type: functional, cell-based;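 also: luciferase signal from HIV-1 Env mediated cell-cell fusion of effector and target cells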
[17] = blockers of HIV-1 envelope-mediated cell-cell fusion – cherry-pick, dose response (AID 652057); assay type: functional, cell-based
Paired box protein Pax-8 = Paired box protein Pax-8 (Homo sapiens, UniProt Q06710); test: PAX8 transcriptional activity inhibition in RMG-I – RMG-I cells, luciferase, cherry-pick, dose response (AID 687027); assay type: functional, cell-based;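 also: luciferase reporter driven by Pax8 target thyroperoxidase promoter measured by SteadyGlo luminescence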
[18] = OVCAR8 cell viability loss – plate reader, dry powder samples, PAX8 project, dose response (AID 743197); assay type: functional, cell-based; conditions: OVCAR-8
[19] = intracellular Trypanosoma cruzi inhibitors in host cells – cell-based, plate reader, cherry-pick samples, set 3, dose response (AID 651818); assay type: functional;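 also: compounds incubated with infected cells for about four days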

Sequence of Paired box protein Pax-8 (Q06710 whole entry): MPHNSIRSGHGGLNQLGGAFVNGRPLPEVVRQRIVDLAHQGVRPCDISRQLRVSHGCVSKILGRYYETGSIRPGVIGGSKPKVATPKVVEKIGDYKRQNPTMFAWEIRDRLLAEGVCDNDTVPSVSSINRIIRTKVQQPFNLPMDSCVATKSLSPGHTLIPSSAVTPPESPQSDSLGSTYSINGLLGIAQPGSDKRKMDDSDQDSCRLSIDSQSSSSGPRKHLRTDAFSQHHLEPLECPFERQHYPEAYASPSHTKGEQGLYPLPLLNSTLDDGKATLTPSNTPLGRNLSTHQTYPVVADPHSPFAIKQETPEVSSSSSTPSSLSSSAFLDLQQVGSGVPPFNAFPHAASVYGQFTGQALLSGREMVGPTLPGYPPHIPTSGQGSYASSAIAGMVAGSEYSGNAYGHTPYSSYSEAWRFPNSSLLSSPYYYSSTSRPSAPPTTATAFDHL

COc1ccccc1S(=O)(=O)Cc1ccc(C(=O)N2CCN(c3cccc(Cl)c3)CC2)o1
AC50 [1]: 43 µM (active)
AC50 [2]: 17.1 µM (active)
AC50 [3]: > 70 µM (inactive)

COc1cccc(CNC(=O)c2cc3oc4ccccc4c3n2C)c1OC
CC50 [4]: 11.7 µM (active)
IC50 (cells): 4.72 µM (active)

CCC(=O)Nc1cc2nn(-c3ccc(OC)cc3)nc2cc1C
AC50 [5]: 3.64 µM (active)
AC50 [6]: > 52 µM (inactive)
AC50 [7]: 2.52 µM (active)

CSCCC(c1nnnn1-c1c(C)cccc1C)N1CCC(n2c(O)nc3ccccc32)CC1 (stereo not drawn)
AC50 [5]: 16.5 µM (active)
AC50 [6]: 36.5 µM (active)
AC50 [7]: 20.5 µM (active)
AC50 [8]: 22.4 µM (active)
AC50 [9]: 18.3 µM (active)

Cc1ccc(-n2c(SCC(=O)Nc3ncc(Cl)cc3Cl)nc3ccccc32)cc1
EC50 (BJ [10]): 64.6 µM (active)
EC50 (BJ [11]): > 150 µM (not active)
CC50 (Vero [12]): > 25 µM (active)
EC50 (BJ [13]): 115 µM (active)
CC50 [4]: 2.33 µM (active)
IC50 (Vero [14]): 0.72 µM (active)
EC50 [15]: 30.6 µM (inconclusive)
IC50 (cells): 1.1 µM (active)

COC(=O)C1=C(C)N(Cc2ccccc2)C(=O)N[C@H]1c1ccc(Br)cc1
IC50 (cells): 4.43 µM (active)

NC(Cc1ccc(F)cc1)c1csc(Nc2ccc(C(F)(F)F)cn2)n1 (stereo not drawn)
AC50 [16]: 7.7 µM (active)
AC50 [17]: 10 µM (active)
AC50 [2]: 9.3 µM (active)
AC50 [3]: 9.07 µM (active)

CCCNC(=O)Nc1ccc2c(c1)OC[C@H](C)N(Cc1ccc(-c3ccccn3)cc1)C[C@@H](C)[C@@H](OC)CN(C)C2=O
AC50 (Paired box protein Pax-8): 32.9 µM (active)
AC50 [18]: > 70 µM (inactive)

CC(=O)Nc1nnc(SCC(=O)c2ccc3c(c2)Cc2ccccc2-3)s1
CC50 [4]: 45.6 µM (active)
IC50 (Vero [14]): 10.9 µM (active)
IC50 (cells): 36 µM (active)

C[C@@H]1CN([C@@H](C)CO)C(=O)c2cccc(NC(=O)Nc3ccccc3)c2O[C@H]1CN(C)Cc1ccc(Oc2ccccc2)cc1
AC50 [19]: 2.97 µM (active)

Cc1ccc(-c2nn(-c3ccccc3)cc2C2CC(c3cccs3)=NN2C(=O)CCCC(=O)O)cc1 (stereo not drawn)
CC50 [4]: > 50 µM (active)
IC50 (cells): 36.9 µM (active)

Nc1ccn(C2OC(CO)C(O)C2F)c(=O)n1 (stereo not drawn)
AC50 [1]: 2.98 µM (active)
AC50 [16]: 6.52 µM (active)
AC50 [17]: 16.3 µM (active)
AC50 [2]: 33.2 µM (active)
AC50 [3]: > 70 µM (inactive)

CC(C)(C)C(=O)Nc1sc(-c2ccccc2)cc1C(=O)O
CC50 [4]: 17.9 µM (active)
IC50 (Vero [14]): 24.1 µM (active)
IC50 (cells): 14.3 µM (active)

CCOC1=C2[C@H](c3ccccc3)N(S(=O)(=O)c3ccc(C)cc3)[C@H](C(C)C)[C@H]2C(C#N)(C#N)C(C#N)(C#N)C1
AC50 [1]: 3.08 µM (active)
AC50 [16]: 2.05 µM (active)
AC50 [17]: 0.734 µM (active)
AC50 [2]: 6.07 µM (active)
AC50 [3]: 1.7 µM (active)

C[C@@H]1CCCCO[C@@H](CN(C)Cc2ccc(C(F)(F)F)cc2)[C@@H](C)CN([C@H](C)CO)C(=O)c2cc(NS(=O)(=O)c3ccc(F)cc3)ccc2O1
AC50 [19]: 5.13 µM (active)
